# Reference: patent US12533341B2, “Small molecule inhibitors of voltage-gated sodium channel 1.7 and methods of using same” (Duke University, priority 2019, dated 2026)
# “Also recorded” adds a separate entry of the source.
# Key:
# human Nav1.7 = human Nav1.7 (Homo sapiens, UniProt Q15858); assay: Whole-cell patch-clamp of sodium currents in Nav1.7-expressing HEK293 cells; type: cell-based; conditions: 10 μM, screen of compounds 1-9 (FIG. 3)
# Description: HEK-hNav1.7 stable cell line was purchased from SB Drug Discovery (Glasgow, United Kingdom). Human embryonic kidney 293 (HEK293) cells were obtained from the ATCC and maintained at the Duke cell culture facility. Cells were cultured in high-glucose (4.5 g/L) DMEM containing 10% (v/v) FBS (Gibco) and streptomycin/penicillin. For Nav1.7-expressing HEK293 cells, an additional antibiotic, blasticidin, was included. hNav1.5 transfection was performed by Lipofectamine 2000 at 70% confluence using 2 μg cDNA. The transfected cells were cultured in the same growth medium for 48 h before biochemical or electrophysiological studies.
# Whole-cell patch-clamp recordings were conducted at room temperature. Patch pipettes pulled from borosilicate capillaries (World Precision Instruments, Inc., Sarasota, FL) were used to record transient Na currents with an Axopatch-200B amplifier with a Digidata 1440A (Axon Instruments, Sunnyvale CA). The resistance was set to 3-4 MΩ when filled with pipette solution. The pipette solution contained (in mmol/L): CsCl 130, NaCl 9, MgCl2 1, EGTA 10, HEPES 10, adjusted to pH 7.3 with CsOH. The external solution for recording transient Na^+ currents contained (in mmol/L): NaCl 131, TEACl 10, CsCl 10, CaCl2) 1, MgCl2 2, CdCl2 0.3, 4-aminopyridine 3, HEPES 10, glucose 10, adjusted to pH 7.4 with NaOH. The recording chamber (300 μL) was continuously superfused at 3-4 mL/min. Series resistance was compensated (>80%) and leak subtraction was performed. Data were low-pass-filtered at 2 kHz and sampled at 10 kHz. pClamp10 (Axon Instruments) software was used during experiments and analysis. In voltage-clamp experiments, transient Na+ currents were evoked by a test pulse to 0 mV from the holding potential (−70 mV).
# The effects of the 9 selected compounds on Nav1.7 channel activities were tested using patch-clamp recordings on human Nav1.7 expressing HEK293 cells (FIG. 3, FIG. 4). In each cell, sodium currents were recorded for 13 min, and candidate inhibitors (10 μM) were incubated for 2 min after 2 min baseline recording (FIG. 3). Compound was applied at the beginning of the second minute for two minutes (denoted as a horizontal line above the X-axis). Sodium currents were recorded at equal intervals (every 20 seconds, 40 recordings per compound per cell). Data was analyzed with a two-way repeated measures ANOVA, followed by a post-hoc test of the last timepoint Bonferroni-corrected for 9 pairwise comparisons (each compound was compared with control). […] Sample size n=3 to 7 cells per group.
# For FIG. 4C, sample size was n=5 to 7 cells per group. Compound was applied at the beginning of the second minute for two minutes (denoted as a horizontal line above the X-axis). Sodium currents were recorded every 20 seconds.
# [1] = tested on: paclitaxel-induced mechanical allodynia; assay: Paclitaxel-induced neuropathic pain model (von Frey); type: in vivo, mouse; conditions: intrathecal 10 nmol and 30 nmol, mice
# Description: Intraperitoneal injection of paclitaxel (PTX, 2 mg/kg for multiple injections at day 0, 2, 4, and 6) was given to generate chemotherapy-associated neuropathic pain. Neuropathic pain behavior was tested 3 weeks after PTX injection using a von Frey test. Briefly, animals were habituated to the testing environment daily for at least 2 days before the baseline testing. Animals were confined in boxes placed on an elevated metal mesh floor and the hind paws were stimulated with a series of von Frey hairs with logarithmically increasing stiffness (0.02-2.56 g, Stoelting), presented perpendicularly to the central plantar surface. The 50% paw withdrawal threshold was determined by an up-down method.
# [2] = tested on: neuropathic pain (CCI, SNI); assay: Neuropathic pain models (CCI, SNI); type: in vivo, mouse; conditions: intrathecally at a dose of 30 mg/kg; CCI and SNI models
# Description: Neuropathic pain is produced by chronic constriction injury (CCI) of the sciatic nerve. Mice are anesthetized with isoflurane, and three ligatures are 7-0 prolene placed around the nerve proximal to the trifurcation (1 mm between ligatures). The ligatures are loosely tied until a short flick of the ipsilateral hind limb is observed (Chen, Ji, et al. 2015; J Clin. Invest. 125(8):3226-3240).
# SNI model. Neuropathic pain is produced by spared nerve injury (SNI). SNI surgery is conducted with a 5.0 silk tight ligation of the tibial and common peroneal nerves followed by transection and removal of a 3-5 mm nerve portion.
# Animals in the neuropathic pain models are dosed with N-substituted indoles according to the present disclosure [N-(methylsulfonyl)-3-(3-oxo-1-(3-phenoxyphenyl)-3-((2-(pyrrolidin-1-yl)ethyl)amino)propyl)-1H-indole-1-carboxamide (10); (Z)-N-(5-((3-(3-oxo-1-(3-phenoxyphenyl)-3-((2-(pyrrolidin-1-yl)ethyl)amino)propyl)-1H-indol-1-yl)sulfonyl)-1,3,4-thiadiazol-2-yl)acetimidic acid (11); and 3-(3-phenoxyphenyl)-N-(2-(pyrrolidin-1-yl)ethyl)-3-(1-(thiazol-2-ylsulfonyl)-1H-indol-3-yl)propanamide (12)]. The compounds are synthesized according to the route outlined in Scheme 1 and are administered intrathecally at a dose of 30 mg/kg.
# acute and chronic itch = assay: Itch models (acute, dry skin, allergic contact dermatitis); type: in vivo, mouse; conditions: intrathecally at a dose of 30 mg/kg, dry skin and ACD itch models
# Description: Mice are habituated to the testing environment daily for at least two days before analysis. Mice are shaved at the back of the neck the day before injection. Mice are left in small plastic chambers (14×18×12 cm) on an elevated metal mesh floor and allowed 30 min for habituation before examination. To elicit acute itch, pruritic agent 48/80 or chloroquine are injected intradermally in the nape of the neck and the number of scratched are counted every 5 min for 30 min after the injection. A scratch is counted when a mouse lifts its hindpaw to scratch the shaved region and returns the paw to the floor or to the mouth for the licking (Liu, et al. 2012; J Cin. Invest. 122(6):2195-2207).
# To induce chronic itch, the neck skin is painted with acetone and diethyl ether (1:1) followed by water twice a day for 4 days, and spontaneous itch is examined by counting the number of scratches for 60 minutes on day 5. (Liu, et al. 2012, supra).
# Chronic itch is induced by applying the hapten 1-fluoro-2,4-dinitrobenzene (DNFB) onto the back skin. (Liu, Ji, et al. 2016; Pain. 157(4):806-817; Zhao, et al. 2013; J Clin. Invest. 123(11):4769-4780). DNFB is dissolved in a mixture of acetone:olive oil (4:1) for sensitization and challenge. One day before sensitization, the surface of the abdomen and the nape of the neck are shaved. Mice are sensitized with 0.5% DNFB solution (50 μL) by topical application to a ˜2 cm^2 area of abdomen skin. Five days later, mice are challenged with 0.2% DNFB solution (30 μL) by painting the shave neck area, then every other day for one week. Spontaneous scratching behaviors are videoed for 1 hour, at 24 hours after each challenge. The behavioral tests of itch are performed blindly.
# Animals in the itch models are dosed with N-substituted indoles 10, 11, and 12, which are administered intrathecally at a dose of 30 mg/kg.
# human Nav1.7, sequence (Q15858 whole entry): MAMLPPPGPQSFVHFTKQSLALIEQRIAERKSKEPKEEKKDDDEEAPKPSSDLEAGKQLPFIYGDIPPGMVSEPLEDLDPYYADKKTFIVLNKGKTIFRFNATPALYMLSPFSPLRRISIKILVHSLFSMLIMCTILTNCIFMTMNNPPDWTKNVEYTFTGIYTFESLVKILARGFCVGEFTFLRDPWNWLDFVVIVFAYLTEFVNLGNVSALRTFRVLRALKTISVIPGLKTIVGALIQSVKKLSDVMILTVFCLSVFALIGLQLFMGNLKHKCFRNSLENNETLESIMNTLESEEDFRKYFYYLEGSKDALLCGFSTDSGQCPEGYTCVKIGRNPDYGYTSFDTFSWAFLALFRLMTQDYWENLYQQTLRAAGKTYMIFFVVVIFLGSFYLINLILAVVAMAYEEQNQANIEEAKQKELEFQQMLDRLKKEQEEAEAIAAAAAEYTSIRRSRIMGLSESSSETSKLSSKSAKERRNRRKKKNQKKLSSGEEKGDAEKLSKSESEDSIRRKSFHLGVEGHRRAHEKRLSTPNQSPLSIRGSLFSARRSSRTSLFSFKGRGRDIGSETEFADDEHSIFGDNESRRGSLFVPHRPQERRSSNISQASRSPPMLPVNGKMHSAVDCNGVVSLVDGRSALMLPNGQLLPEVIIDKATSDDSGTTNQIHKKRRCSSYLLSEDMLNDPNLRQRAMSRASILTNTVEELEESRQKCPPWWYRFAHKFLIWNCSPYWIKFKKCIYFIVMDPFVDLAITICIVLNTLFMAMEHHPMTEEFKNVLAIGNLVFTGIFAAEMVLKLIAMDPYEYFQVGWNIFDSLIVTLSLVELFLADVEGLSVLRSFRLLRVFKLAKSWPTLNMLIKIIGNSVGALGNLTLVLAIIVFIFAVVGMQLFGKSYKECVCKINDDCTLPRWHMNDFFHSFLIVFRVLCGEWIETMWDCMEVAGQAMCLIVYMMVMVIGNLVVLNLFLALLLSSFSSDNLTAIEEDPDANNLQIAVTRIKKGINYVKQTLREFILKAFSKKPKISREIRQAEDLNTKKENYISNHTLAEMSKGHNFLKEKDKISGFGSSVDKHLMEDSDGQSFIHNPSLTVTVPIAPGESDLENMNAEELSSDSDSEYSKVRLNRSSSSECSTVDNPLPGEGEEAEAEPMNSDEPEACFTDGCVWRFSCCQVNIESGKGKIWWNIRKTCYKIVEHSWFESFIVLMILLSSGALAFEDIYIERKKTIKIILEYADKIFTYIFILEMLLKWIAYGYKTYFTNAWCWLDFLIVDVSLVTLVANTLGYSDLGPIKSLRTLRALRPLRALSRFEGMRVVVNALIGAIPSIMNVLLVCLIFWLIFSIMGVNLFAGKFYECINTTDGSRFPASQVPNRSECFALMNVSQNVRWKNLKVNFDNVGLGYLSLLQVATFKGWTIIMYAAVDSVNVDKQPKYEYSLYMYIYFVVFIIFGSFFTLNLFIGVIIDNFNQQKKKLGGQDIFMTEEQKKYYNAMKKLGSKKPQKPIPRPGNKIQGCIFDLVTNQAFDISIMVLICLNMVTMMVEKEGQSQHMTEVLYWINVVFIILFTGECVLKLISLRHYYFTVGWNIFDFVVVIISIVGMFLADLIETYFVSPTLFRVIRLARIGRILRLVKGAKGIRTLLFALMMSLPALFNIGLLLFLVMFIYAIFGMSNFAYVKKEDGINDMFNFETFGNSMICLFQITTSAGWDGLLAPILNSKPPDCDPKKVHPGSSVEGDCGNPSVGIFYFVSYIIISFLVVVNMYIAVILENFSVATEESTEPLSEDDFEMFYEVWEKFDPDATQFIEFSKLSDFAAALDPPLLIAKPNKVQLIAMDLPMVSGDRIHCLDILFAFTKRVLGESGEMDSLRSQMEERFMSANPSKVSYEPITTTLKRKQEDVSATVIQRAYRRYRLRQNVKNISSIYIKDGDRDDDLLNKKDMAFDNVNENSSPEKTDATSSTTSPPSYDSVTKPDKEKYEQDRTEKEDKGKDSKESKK
difference in relative current from the control group at the last measurement (human Nav1.7),Structure (SMILES),anti-allodynic effect in the paclitaxel model [1],reduction of pain in neuropathic pain models [2],reduction of scratching in itch models (acute and chronic itch)
0.29,Cc1ccc(Cn2cc(C(CC(=O)NCc3ccncc3)c3cccc(Oc4ccc(Cl)cc4)c3)c3ccccc32)cc1 (stereo not shown) [Compound 5],,,
,"Nc1[nH]ncc1-c1cc(Cl)ccc1Oc1cc(F)c(S(=O)(=O)Nc2cscn2)cc1Cl [PF-05089771, reference compound]",failed to produce any anti-allodynic effect; also recorded: did not produce anti-allodynia effects,,
,"CS(=O)(=O)NC(=O)n1cc(C(CC(=O)NCCN2CCCC2)c2cccc(Oc3ccccc3)c2)c2ccccc21 (stereo not shown) [Compound 10, N-(methylsulfonyl)-3-(3-oxo-1-(3-phenoxyphenyl)-3-((2-(pyrrolidin-1-yl)ethyl)amino)propyl)-1H-indole-1-carboxamide]",,Reduction of pain is observed,Reduction of scratching is observed
,"CC(=O)Nc1nnc(S(=O)(=O)n2cc(C(CC(=O)NCCN3CCCC3)c3cccc(Oc4ccccc4)c3)c3ccccc32)s1 (stereo not shown) [Compound 11, (Z)-N-(5-((3-(3-oxo-1-(3-phenoxyphenyl)-3-((2-(pyrrolidin-1-yl)ethyl)amino)propyl)-1H-indol-1-yl)sulfonyl)-1,3,4-thiadiazol-2-yl)acetimidic acid]",,Reduction of pain is observed,Reduction of scratching is observed
0.35,COc1ccc(Cn2cc(C(CC(=O)NCc3ccccc3)c3cccc(OCc4ccccc4)c3)c3ccccc32)cc1 (stereo not shown) [Compound 7],,,
,"O=C(CC(c1cccc(Oc2ccccc2)c1)c1cn(S(=O)(=O)c2nccs2)c2ccccc12)NCCN1CCCC1 (stereo not shown) [Compound 12, 3-(3-phenoxyphenyl)-N-(2-(pyrrolidin-1-yl)ethyl)-3-(1-(thiazol-2-ylsulfonyl)-1H-indol-3-yl)propanamide]",,Reduction of pain is observed,Reduction of scratching is observed
0.36,COc1ccc(Cn2cc(C(CC(=O)NCc3ccco3)c3cccc(Oc4ccccc4)c3)c3ccccc32)cc1 (stereo not shown) [Compound 8],,,
